Source: PMC10313001, “Carboxylic acids that drive mosquito attraction to humans activate ionotropic receptors” (PLOS Neglected Tropical Diseases, 2023)

Tests used:
[1] = biological target: T1, AaegIR75k1 (Aedes aegypti, UniProt A0A6I8TFY9); test: two-electrode voltage clamp, Xenopus oocytes, single concentration […]; response about one quarter of nonanoic acid; format: cell-based
T1 construct: gene 5563741; with AaegIR8a
T1 sequence (A0A6I8TFY9 20-624): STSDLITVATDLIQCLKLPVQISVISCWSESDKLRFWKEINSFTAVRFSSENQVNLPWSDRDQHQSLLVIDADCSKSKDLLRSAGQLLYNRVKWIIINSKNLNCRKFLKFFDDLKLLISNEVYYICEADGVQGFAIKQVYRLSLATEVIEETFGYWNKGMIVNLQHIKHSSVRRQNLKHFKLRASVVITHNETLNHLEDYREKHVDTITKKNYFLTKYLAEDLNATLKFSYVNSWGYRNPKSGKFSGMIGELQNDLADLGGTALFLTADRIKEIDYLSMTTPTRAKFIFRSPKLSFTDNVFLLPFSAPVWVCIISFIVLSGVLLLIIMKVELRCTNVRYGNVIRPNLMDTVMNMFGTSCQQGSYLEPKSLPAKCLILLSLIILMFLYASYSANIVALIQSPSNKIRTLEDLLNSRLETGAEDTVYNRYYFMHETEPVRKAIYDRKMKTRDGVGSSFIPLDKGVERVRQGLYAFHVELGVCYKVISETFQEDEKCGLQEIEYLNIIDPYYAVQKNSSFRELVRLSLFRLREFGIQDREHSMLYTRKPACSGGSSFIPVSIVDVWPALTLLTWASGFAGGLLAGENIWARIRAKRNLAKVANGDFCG
T1 sequence (A0A1S4F362 23-913 partner): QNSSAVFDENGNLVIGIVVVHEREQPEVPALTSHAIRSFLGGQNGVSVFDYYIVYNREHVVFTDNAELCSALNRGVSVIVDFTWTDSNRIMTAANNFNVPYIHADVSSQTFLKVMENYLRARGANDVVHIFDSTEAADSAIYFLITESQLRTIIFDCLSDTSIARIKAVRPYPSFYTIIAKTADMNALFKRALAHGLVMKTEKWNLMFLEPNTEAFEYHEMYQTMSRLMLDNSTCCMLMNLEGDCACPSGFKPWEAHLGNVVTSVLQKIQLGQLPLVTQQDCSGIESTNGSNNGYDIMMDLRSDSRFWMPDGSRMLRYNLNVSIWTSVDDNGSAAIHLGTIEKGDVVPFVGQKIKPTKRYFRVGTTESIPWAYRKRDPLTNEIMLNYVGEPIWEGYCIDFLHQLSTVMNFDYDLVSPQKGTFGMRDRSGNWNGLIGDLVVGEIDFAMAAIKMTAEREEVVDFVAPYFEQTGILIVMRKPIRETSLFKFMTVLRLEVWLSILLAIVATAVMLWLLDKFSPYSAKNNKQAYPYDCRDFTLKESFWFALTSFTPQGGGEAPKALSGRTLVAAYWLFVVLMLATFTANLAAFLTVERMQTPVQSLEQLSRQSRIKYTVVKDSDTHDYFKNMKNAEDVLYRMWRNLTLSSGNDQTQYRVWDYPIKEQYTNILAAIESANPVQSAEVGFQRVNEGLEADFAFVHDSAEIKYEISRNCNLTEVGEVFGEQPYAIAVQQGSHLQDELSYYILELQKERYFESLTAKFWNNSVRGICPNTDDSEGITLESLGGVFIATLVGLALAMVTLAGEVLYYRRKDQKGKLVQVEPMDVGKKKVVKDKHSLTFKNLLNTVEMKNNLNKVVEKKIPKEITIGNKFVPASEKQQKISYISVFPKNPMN

[2] = biological target: T2, AaegIR75k3 (Aedes aegypti, UniProt A0A6I8U3Y9); test: two-electrode voltage clamp, Xenopus oocytes expressing AaegIR75k3/AaegIR8a; format: cell-based
T2 construct: gene 5563739; with AaegIR8a
T2 sequence (A0A6I8U3Y9 20-624): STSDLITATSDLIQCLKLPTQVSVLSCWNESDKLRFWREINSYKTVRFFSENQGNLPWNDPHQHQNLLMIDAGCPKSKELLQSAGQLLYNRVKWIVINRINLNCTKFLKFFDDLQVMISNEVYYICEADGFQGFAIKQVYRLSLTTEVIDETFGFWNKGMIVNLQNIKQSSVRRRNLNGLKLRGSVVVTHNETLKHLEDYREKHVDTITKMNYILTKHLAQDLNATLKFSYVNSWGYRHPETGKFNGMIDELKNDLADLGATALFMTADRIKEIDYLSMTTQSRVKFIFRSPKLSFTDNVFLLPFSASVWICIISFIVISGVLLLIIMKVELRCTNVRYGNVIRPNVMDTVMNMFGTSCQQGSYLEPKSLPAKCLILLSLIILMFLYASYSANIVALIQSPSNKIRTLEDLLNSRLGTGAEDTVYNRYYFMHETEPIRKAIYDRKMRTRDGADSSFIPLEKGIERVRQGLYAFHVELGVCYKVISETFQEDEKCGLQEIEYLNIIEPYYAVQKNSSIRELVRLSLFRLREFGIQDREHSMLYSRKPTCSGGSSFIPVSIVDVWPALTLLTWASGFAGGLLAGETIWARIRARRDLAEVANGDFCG
T2 sequence (A0A1S4F362 23-913 partner): T1 sequence (A0A1S4F362 23-913 partner)

[3] = biological target: T1, AaegIR75k1; test: two-electrode voltage clamp, Xenopus oocytes expressing AaegIR75k1/AaegIR8a; format: cell-based
[4] = test system: T3, AalbIR75e; test: two-electrode voltage clamp, Xenopus oocytes expressing AalbIR75e/AalbIR8a; format: cell-based, Aedes albopictus
T3 construct: gene Ir75e; with AalbIR8a

Structure (SMILES): CCCCCCCC(=O)O [octanoic acid]
- two-electrode voltage clamp, Xenopus oocytes, single concentration 10^-4 M; resp [1]: also maximally activated by nonanoic acid, with responses four-fold greater than for octanoic acid
- EC50 [2]: 25.2 µM

Structure (SMILES): CCCCCCCCC(=O)O [nonanoic acid]
- EC50 [3]: 9.94 µM
- EC50 [4]: 8.64 µM
- EC50 [2]: 18.1 µM
